Test results from PubChem BioAssay AID330 (DTP/NCI, 2004).
Several values for one entry are separate records, joined by “and”; a condition that tells them apart may be missing. Identical values can stand only once. Inconclusive results and toxic doses are left out. How the source made its calls: active means survival T/C of 150% or more; inactive means T/C below 125% in these data.

Tested on: P388 leukemia ip, CD2F1 mice, survival T/C
Test: NCI In Vivo Anticancer Drug Screen. Data for tumor model P388 Leukemia (intraperitoneal) in CD2F1 (CDF1) mice
Details: endpoint: median survival time, higher = longer survival
Procedure, shortened: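 Mice carrying the transplanted tumor received test compound or vehicle. Survival was recorded in each group, and the value is the treated-group measurement divided by that of the vehicle-treated control group.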

[1] = dose: 50.0 mg/kg/injection, schedule: Q01DX005 (ip), vehicle: Klucel + Tween-80
[2] = dose: 100.0 mg/kg/injection, schedule: Q01DX005 (ip), vehicle: Klucel + Tween-80
[3] = dose: 200.0 mg/kg/injection, schedule: Q01DX005 (ip), vehicle: Klucel + Tween-80
[4] = dose: 50.0 mg/kg/injection, schedule: Q01DX005 (ip), vehicle: saline
[5] = dose: 100.0 mg/kg/injection, schedule: Q01DX005 (ip), vehicle: saline
[6] = dose: 200.0 mg/kg/injection, schedule: Q01DX005 (ip), vehicle: saline
[7] = dose: 60.0 mg/kg/injection, schedule: Q01DX005 (ip), vehicle: saline with Tween-80
[8] = dose: 120.0 mg/kg/injection, schedule: Q01DX005 (ip), vehicle: saline with Tween-80
[9] = dose: 240.0 mg/kg/injection, schedule: Q01DX005 (ip), vehicle: saline with Tween-80
[10] = dose: 50.0 mg/kg/injection, schedule: Q01DX009 (ip), vehicle: saline
[11] = dose: 50.0 mg/kg/injection, schedule: Q01DX005 (ip), vehicle: Klucel (hydroxypropylcellulose) (HPC)
[12] = dose: 100.0 mg/kg/injection, schedule: Q01DX005 (ip), vehicle: Klucel (hydroxypropylcellulose) (HPC)
[13] = dose: 30.0 mg/kg/injection, schedule: Q01DX005 (ip), vehicle: saline
[14] = dose: 60.0 mg/kg/injection, schedule: Q01DX005 (ip), vehicle: saline
[15] = dose: 120.0 mg/kg/injection, schedule: Q01DX005 (ip), vehicle: saline

Measured: T/C

O=C(O)c1c2cc(Br)ccc2nc2[nH]c(=O)[nH]c(=O)c12
inactive: [1] 104 % of control | [2] 112 % of control | [3] 111 % of control

CC(=O)N1CCC(/C(C)=N/O)CC1
inactive: [4] 107 % of control | [5] 101 % of control | [6] 106 % of control

C/C(=C\C(=O)Nc1ccc(S(=O)(=O)F)cc1)c1ccc([N+](=O)[O-])cc1
inactive: [7] 100 % of control | [8] 102 % of control | [9] 90 % of control

Nc1nc(=O)nc2[nH]c3c4cccc5cccc(c3nc12)c54
inactive: [7] 96 % of control | dose: 100.0 mg/kg/injection, schedule: Q04DX002 (ip), vehicle: Klucel (hydroxypropylcellulose) (HPC) 100 % of control | [8] 93 % of control | dose: 200.0 mg/kg/injection, schedule: Q04DX002 (ip), vehicle: Klucel (hydroxypropylcellulose) (HPC) 100 % of control | [9] 100 % of control | dose: 400.0 mg/kg/injection, schedule: Q04DX002 (ip), vehicle: Klucel (hydroxypropylcellulose) (HPC) 101 % of control

CN(C)C=O
inactive: dose: 12.5 mg/kg/injection, schedule: Q01DX009 (ip), vehicle: saline 103 % of control and 111 % of control | dose: 25.0 mg/kg/injection, schedule: Q01DX009 (ip), vehicle: saline 103 % of control and 107 % of control | [10] 107 % of control (2×) and 111 % of control | dose: 100.0 mg/kg/injection, schedule: Q01DX009 (ip), vehicle: saline 109 % of control and 115 % of control and 116 % of control | dose: 800.0 mg/kg/injection, schedule: Q01DX009 (ip), vehicle: saline 120 % of control | dose: 1600.0 mg/kg/injection, schedule: Q01DX009 (ip), vehicle: saline 118 % of control | dose: 2.0 % in 0.5 ml injection vol, schedule: Q01DX009 (ip), vehicle: water 107 % of control and 119 % of control | dose: 4.0 % in 0.5 ml injection vol, schedule: Q01DX009 (ip), vehicle: water 116 % of control and 119 % of control | dose: 8.0 % in 0.5 ml injection vol, schedule: Q01DX009 (ip), vehicle: water 119 % of control

NC(=S)c1cc(Cl)cc(Cl)c1N
inactive: dose: 3.75 mg/kg/injection, schedule: Q01DX005 (ip), vehicle: Klucel (hydroxypropylcellulose) (HPC) 100 % of control | dose: 7.5 mg/kg/injection, schedule: Q01DX005 (ip), vehicle: Klucel (hydroxypropylcellulose) (HPC) 98 % of control | dose: 15.0 mg/kg/injection, schedule: Q01DX005 (ip), vehicle: Klucel (hydroxypropylcellulose) (HPC) 99 % of control and 96 % of control | dose: 30.0 mg/kg/injection, schedule: Q01DX005 (ip), vehicle: Klucel (hydroxypropylcellulose) (HPC) 94 % of control | dose: 60.0 mg/kg/injection, schedule: Q01DX005 (ip), vehicle: Klucel (hydroxypropylcellulose) (HPC) 92 % of control

CC1CCC(=O)CN1Cc1ccccc1 (stereo not given)
inactive: dose: 50.0 mg/kg/injection, schedule: Q01DX005 (ip), vehicle: saline with Tween-80 109 % of control | dose: 100.0 mg/kg/injection, schedule: Q01DX005 (ip), vehicle: saline with Tween-80 101 % of control

CCOP(=O)(Nc1c(Cl)cc2c(c1Cl)Cc1cc([N+](=O)[O-])ccc1-2)OCC
inactive: [11] 92 % of control | [12] 88 % of control | dose: 200.0 mg/kg/injection, schedule: Q01DX005 (ip), vehicle: Klucel (hydroxypropylcellulose) (HPC) 88 % of control

COc1cccc2c1C(=O)c1c(O)c3c(c(O)c1C2=O)CC(O)(C(C)=O)CC3OC1CC(NCC2(O)OCC(O)C(OC3OC(CO)C(O)C(O)C3O)C2O)C(O)C(C)O1 (stereo not given)
inactive: dose: 1.56 mg/kg/injection, schedule: Q04DX003 (ip), vehicle: water 100 % of control | dose: 3.12 mg/kg/injection, schedule: Q04DX003 (ip), vehicle: water 98 % of control and 99 % of control | dose: 3.13 mg/kg/injection, schedule: Q04DX003 (ip), vehicle: water 95 % of control | dose: 6.25 mg/kg/injection, schedule: Q04DX003 (ip), vehicle: water 99 % of control and 102 % of control and 103 % of control | dose: 12.5 mg/kg/injection, schedule: Q04DX003 (ip), vehicle: water 100 % of control | dose: 25.0 mg/kg/injection, schedule: Q04DX003 (ip), vehicle: water 105 % of control and 108 % of control and 119 % of control | dose: 50.0 mg/kg/injection, schedule: Q04DX003 (ip), vehicle: water 119 % of control

O=C(Nc1cccc([N+](=O)[O-])c1)OCc1ccc2c(c1)OCO2
inactive: [7] 91 % of control | [8] 90 % of control

CC1=CC(=O)NC1O (stereo not given)
inactive: dose: 2.5 mg/kg/injection, schedule: Q01DX010 (ip), vehicle: saline 104 % of control | dose: 5.0 mg/kg/injection, schedule: Q01DX010 (ip), vehicle: saline 95 % of control | dose: 10.0 mg/kg/injection, schedule: Q01DX010 (ip), vehicle: saline 90 % of control | dose: 15.0 mg/kg/injection, schedule: Q01DX010 (ip), vehicle: saline 95 % of control | dose: 23.0 mg/kg/injection, schedule: Q01DX009 (ip), vehicle: saline 95 % of control | dose: 35.0 mg/kg/injection, schedule: Q01DX009 (ip), vehicle: saline 86 % of control | [10] 104 % of control

Cc1cc(C)[n+]2n1C(=O)C(c1ccc(C3C(=O)n4c(C)cc(C)[n+]4C3=O)cc1)C2=O (stereo not given)
inactive: [1] 99 % of control | [2] 97 % of control | [3] 100 % of control

O=C(CC1(Cl)C(F)(F)C(F)(F)C1(F)F)c1ccccc1
inactive: dose: 6.25 mg/kg/injection, schedule: Q04DX003 (ip), vehicle: saline 100 % of control | dose: 12.5 mg/kg/injection, schedule: Q04DX003 (ip), vehicle: saline 100 % of control | dose: 25.0 mg/kg/injection, schedule: Q04DX003 (ip), vehicle: saline 100 % of control

C/C(=N\N/C(N)=N/S(=O)(=O)c1ccc(C)cc1)c1ccc(C)cc1
inactive: dose: 50.0 mg/kg/injection, schedule: Q04DX002 (ip), vehicle: saline with Tween-80 100 % of control | dose: 100.0 mg/kg/injection, schedule: Q04DX002 (ip), vehicle: saline with Tween-80 97 % of control | dose: 200.0 mg/kg/injection, schedule: Q04DX002 (ip), vehicle: saline with Tween-80 98 % of control

CCN(CC)CCN1C(=O)CCC1=O
inactive: [4] 100 % of control | [5] 109 % of control | [6] 104 % of control

O=C(NCCO)Nc1ccc2c(c1)OCCOCCOCCOCCO2
inactive: [13] 98 % of control | [14] 101 % of control | [15] 99 % of control | dose: 240.0 mg/kg/injection, schedule: Q01DX005 (ip), vehicle: saline 99 % of control

C=CCNC(=S)Nc1ncn[nH]1
inactive: [11] 95 % of control | [12] 104 % of control

COc1cc2c(c(OC)c1OC)-c1cc3c(cc1C(OC(C)=O)C1COC(=O)C1C2)OCO3 (stereo not given)
inactive: dose: 0.5 mg/kg/injection, schedule: Q04DX002 (ip), vehicle: acetone 97 % of control and 104 % of control | dose: 1.0 mg/kg/injection, schedule: Q04DX002 (ip), vehicle: acetone 102 % of control and 94 % of control | dose: 2.0 mg/kg/injection, schedule: Q04DX002 (ip), vehicle: acetone 97 % of control and 104 % of control

[CH3][Sn]([CH3])([S]CCS(=O)(=O)O)[S]CCS(=O)(=O)O
inactive: dose: 15.0 mg/kg/injection, schedule: Q01DX005 (ip), vehicle: saline 120 % of control | [13] 98 % of control | [14] 107 % of control | [15] 121 % of control
